The values that follow are results of earlier work, collected in patent US9738644B2, “Chemical compounds, compositions and methods for kinase modulation” (Infinity Pharmaceuticals, Inc., priority 2010, dated 2017).

The test system of data set [1] is B6.Sle1z.Sle3z model. The settings on record: cited from earlier work.
For data set [2] the following is noted: PBS pH 7.4, 37° C., 24 hours; cited from earlier work.
The conditions of data set [3]: reference compounds, 5 μM; cited from earlier work.

On to `CO[C@H]1C[C@@H]2CC[C@@H](C)[C@@](O)(O2)C(=O)C(=O)N2CCCC[C@H]2C(=O)O[C@H]([C@H](C)C[C@@H]2CC[C@@H](OCCO)[C@H](OC)C2)CC(=O)[C@H](C)/C=C(\C)[C@@H](O)[C@@H](OC)C(=O)[C@H](C)C[C@H](C)/C=C/C=C/C=C/1C` [RAD001, everolimus], for which the lupus symptoms entry in data set [1] is “ameliorate lupus symptoms”.

On to `O=C(O)CCCc1ccc(N(CCCl)CCCl)cc1` [chlorambucil], for which the chemical stability result in data set [2] was “largely hydrolyzed over the course of 24 hours”.

As for `CC(C)[N+](C)(CCOC(=O)C1c2ccccc2Oc2ccccc21)C(C)C` [propantheline], the plasma stability entry in data set [3] was “intermediate plasma stability”.

Take `CCCOc1cc(N)ccc1C(=O)OCCN(CC)CC` [propoxycaine]: the plasma stability entry in data set [3] is reported as “low plasma stability”.
